In patent US11825844B2, “Method for controlling Fusarium oxysporum f. sp. cubense tropical race 4” (GUANGXI UNIVERSITY, priority 2021, dated 2023):

Tests used:
spores of Foc TR4 = experiment: Effect on spore morphology of Foc TR4 in Gauze's Medium #1, observed under a scanning electron microscope; type: cell-based, Fusarium oxysporum f. sp. cubense tropical race 4
Description: XcA (the compound xerucitrinin A) at a final concentration of 3 mM was added to Gauze's Medium #1, and the filtered spore suspension of Foc was added, with a final spore concentration of 1×10^7 spores/mL. The control treatment was implemented by treating with the same volume of sterile water. The spore suspension was cultured at 28° C. in the dark for 24 h. The spores of Foc were collected and fixed in a 2.5% (v/v) glutaraldehyde solution at 4° C. overnight. The fixed spores were rinsed twice with 0.1 mol/L PBS (pH 7.4), dehydrated gradiently with 30%, 50%, 70%, 80%, 90%, 95%, and 100% ethanol solutions for 20 min, dried and subjected to gold spraying. The spore morphology of Foc TR4 was observed under a scanning electron microscope.

[1] = tested on: Brazilian banana seedlings; experiment: Effect on the growth of Brazilian banana seedlings in treated Gauze's Medium #1; type: in vivo; conditions: 3 mM in Gauze's Medium #1; 6 Brazilian banana seedlings per treatment
Description: XcA was dissolved in ethanol. In order to investigate the effect of XcA on the growth of Brazilian banana, 3 mM XcA was added to Gauze's Medium #1. A volume of ethanol (CK) equal to the compound concentration was added to the control. A negative control was set up, and 200 μM 8-hydroxyquinoline (8HQ) was added to the Gauze's Medium #1. Then Brazilian banana seedlings were planted in a culture plate containing the above-mentioned treated medium. Each treatment had 6 replicates (6 Brazilian banana seedlings). The culture plate containing Brazilian banana seedlings was placed in a growth chamber to grow for 10 days to observe the effect on plant growth. Each treatment continued to grow for two months, during which an equal volume of sterile water was supplemented, and the plant height, root weight and seedling weight of each treatment were determined.

[2] = Chrome azurol S (CAS) agar plate siderophore zone test for Fe-binding; conditions: 200 μL of 0.2 mM compound solution in Oxford cup, let stand for 3 h
Description: Chrome azurol S (CAS) agar plate, namely the siderophore screening medium consisting of 1 mL of 20% glucose solution, 3 mL of 10% casein, 100 μL of 1 mmoL/L CaCl2), 2 mL of 1 mmoL/L MgSO4, 100 mL of H2O, and 1.8 g of agar, was heated, and supplemented with 5 mL each of CAS dye solution and phosphate buffered saline (PBS) at 60° C. slowly to obtain a CAS-blue agar medium.
CAS dye solution included: 1 mmol/L CAS, 4 mmol/L hexadecyl trimethyl ammonium bromide, and 0.1 mmol/L FeCl3.
PBS (pH 6.8) included: 2.427 g of Na2HPO4.12H2O, 0.5905 g of NaH2PO4.2H2O, 0.075 g of KH2PO4, 0.250 g of NH4Cl, 0.125 g of NaCl, and 100 mL of H2O. All the above solutions were prepared with deionized water. […]
The Fe-binding ability of xerucitrinin A was detected by using the CAS agar plate. […] The growth of Foc TR4 is inhibited by binding Fe.

Cc1c(O)c(C)c2c(c1O)CO[C@]1(C[C@H]3O[C@H](C)[C@@H](C)c4c(C)c(O)c(O)c(c43)O1)[C@H]2C [xerucitrinin A]
spore morphology of Foc (spores of Foc TR4): obvious crenation on the surface of the spores
germination and growth of the spores of Foc (spores of Foc TR4; 3 mM in Gauze's Medium #1, 28° C. in the dark for 24 h): affect the germination and growth of the spores of Foc
effect on the growth of banana seedlings compared with the control [1]: no adverse effect on the growth of banana seedlings
Fe-binding ability (siderophore zone around the Oxford cup) [2]: a siderophore zone appeared around the Oxford cup
